# From ChEMBL document CHEMBL5046296 (J Med Chem, 2022)
# Activity calls are given as the source filed them. No cut-off for these calls is given here.
# Key:
# [1] = Ratio of drug concentration in spinal cord to plasma in CCI induced thermal hyperalgesia Sprague-Dawley rat model at 0.3 mg/kg, po measured at 5.75 hrs post dose; assay type: ADME, organism-based
# [2] = Ratio of drug concentration in spinal cord to plasma in CCI induced thermal hyperalgesia Sprague-Dawley rat model at 0.1 mg/kg, po measured at 5.75 hrs post dose; assay type: ADME, organism-based
# [3] = AUC (infinity) in mouse at 2 mg/kg, iv; assay type: ADME, organism-based; design: time infinity, route intravenous, dose 2 mg/kg; conditions: in vivo
# [4] = Tmax in mouse at 3 mg/kg, po; assay type: ADME, organism-based; conditions: in vivo
# [5] = Permeability of compound at pH 5.5 measured after 4 hrs by PAMPA assay; assay type: ADME; conditions: read-out: permeability
# [6] = Permeability across basolateral to apical side in human Caco-2 cells at 3 uM measured after 2 hrs by LC-MS/MS analysis; assay type: ADME, cell-based; conditions: read-out: permeability
# Aorta = assay: Cardiotoxicity in rat aortic ring assessed as relaxation of phenylephrine induced aortic ring contraction at 10 uM incubated for 1 hr; assay type: toxicity, tissue-based; design: scale not given: the % may be the effect or the level left
# [7] = Protein binding in dog plasma assessed as unbound fraction at 10 uM incubated for 5 hrs by LC-MS/MS analysis; assay type: ADME, cell-free, Canis lupus familiaris
# [8] = Protein binding in mouse brain assessed as unbound fraction at 1 uM incubated for 4 hrs by LC-MS/MS analysis; assay type: ADME, tissue-based
# [9] = Metabolic stability in cynomolgus monkey liver microsomes assessed as half life; assay type: ADME, Macaca fascicularis, Microsome
# Cytochrome P450 1A2 = Cytochrome P450 1A2 (Homo sapiens, UniProt P05177); assay: Inhibition of CYP1A2 (unknown origin); assay type: ADME
# Cytochrome P450 2C19 = Cytochrome P450 2C19 (Homo sapiens, UniProt P33261); assay: Inhibition of CYP2C19 (unknown origin); assay type: ADME
# Cytochrome P450 2C9 = Cytochrome P450 2C9 (Homo sapiens, UniProt P11712); assay: Inhibition of CYP2C9 (unknown origin); assay type: ADME
# Cytochrome P450 2C9, sequence (P11712 whole entry): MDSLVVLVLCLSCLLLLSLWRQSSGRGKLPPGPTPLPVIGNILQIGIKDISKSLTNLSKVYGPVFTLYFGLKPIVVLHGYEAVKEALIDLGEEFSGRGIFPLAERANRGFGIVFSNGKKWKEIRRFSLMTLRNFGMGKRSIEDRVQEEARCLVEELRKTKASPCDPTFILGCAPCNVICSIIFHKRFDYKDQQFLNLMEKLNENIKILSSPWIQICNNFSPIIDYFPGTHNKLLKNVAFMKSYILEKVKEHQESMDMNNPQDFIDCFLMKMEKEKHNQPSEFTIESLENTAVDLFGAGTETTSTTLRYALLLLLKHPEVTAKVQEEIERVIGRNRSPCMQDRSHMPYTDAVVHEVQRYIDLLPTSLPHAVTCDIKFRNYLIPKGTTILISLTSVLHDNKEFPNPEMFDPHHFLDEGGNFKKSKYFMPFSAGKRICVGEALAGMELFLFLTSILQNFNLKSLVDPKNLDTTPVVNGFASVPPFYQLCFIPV
# Cytochrome P450 2D6 = Cytochrome P450 2D6 (Homo sapiens, UniProt P10635); assay: Inhibition of CYP2D6 (unknown origin); assay type: ADME
# Cytochrome P450 3A4 [10] = biological target: T1, Cytochrome P450 3A4 (Homo sapiens, UniProt P08684); assay: Time dependent inhibition of CYP3A4 (unknown origin) using BSF as substrate measured at 5 mins; assay type: ADME
# T1 sequence (P08684 whole entry): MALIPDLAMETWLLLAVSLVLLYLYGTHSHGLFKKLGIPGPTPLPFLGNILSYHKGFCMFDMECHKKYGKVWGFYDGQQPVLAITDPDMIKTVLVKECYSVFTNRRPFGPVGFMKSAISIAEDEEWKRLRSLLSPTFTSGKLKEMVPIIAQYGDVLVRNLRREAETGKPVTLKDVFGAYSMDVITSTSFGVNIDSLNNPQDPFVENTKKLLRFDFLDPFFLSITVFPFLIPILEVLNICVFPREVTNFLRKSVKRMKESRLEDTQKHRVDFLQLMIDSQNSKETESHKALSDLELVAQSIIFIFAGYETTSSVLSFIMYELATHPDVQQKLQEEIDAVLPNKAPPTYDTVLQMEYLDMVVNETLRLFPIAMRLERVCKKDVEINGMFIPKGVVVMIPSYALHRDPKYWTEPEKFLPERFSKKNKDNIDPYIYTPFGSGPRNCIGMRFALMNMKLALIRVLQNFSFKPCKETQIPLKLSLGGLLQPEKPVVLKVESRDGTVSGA
# Cytochrome P450 3A4 [11] = biological target: T1, Cytochrome P450 3A4; assay: Time dependent inhibition of CYP3A4 (unknown origin) using BSF as substrate measured at 30 mins; assay type: ADME
# [12] = biological target: Solute carrier organic anion transporter family member 1B3 (Homo sapiens, UniProt Q9NPD5); assay: Inhibition of OATP1B3 (unknown origin)
# Solute carrier organic anion transporter family member 1B3, sequence (Q9NPD5 whole entry): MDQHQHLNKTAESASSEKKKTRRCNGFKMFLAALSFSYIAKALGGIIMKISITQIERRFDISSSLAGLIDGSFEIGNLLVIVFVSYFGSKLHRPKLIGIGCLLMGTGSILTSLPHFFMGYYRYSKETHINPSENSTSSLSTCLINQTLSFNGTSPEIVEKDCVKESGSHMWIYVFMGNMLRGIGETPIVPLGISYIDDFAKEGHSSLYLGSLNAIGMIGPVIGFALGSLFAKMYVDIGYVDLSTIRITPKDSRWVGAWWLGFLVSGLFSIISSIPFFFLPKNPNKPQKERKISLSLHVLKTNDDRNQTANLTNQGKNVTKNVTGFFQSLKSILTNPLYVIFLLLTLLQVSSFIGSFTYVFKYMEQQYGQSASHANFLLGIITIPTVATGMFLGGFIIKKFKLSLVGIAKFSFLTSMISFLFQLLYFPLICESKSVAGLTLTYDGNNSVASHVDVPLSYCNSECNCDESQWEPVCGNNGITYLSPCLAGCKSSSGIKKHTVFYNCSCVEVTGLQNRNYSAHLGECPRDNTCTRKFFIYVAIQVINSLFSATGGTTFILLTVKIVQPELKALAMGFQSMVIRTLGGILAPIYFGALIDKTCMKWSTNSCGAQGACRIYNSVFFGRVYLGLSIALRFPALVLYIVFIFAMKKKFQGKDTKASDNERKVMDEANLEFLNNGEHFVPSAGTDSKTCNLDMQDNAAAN
# Bile salt export pump = Bile salt export pump (Homo sapiens, UniProt O95342); assay: Inhibition of BSEP (unknown origin)
# Bile salt export pump, sequence (O95342 whole entry): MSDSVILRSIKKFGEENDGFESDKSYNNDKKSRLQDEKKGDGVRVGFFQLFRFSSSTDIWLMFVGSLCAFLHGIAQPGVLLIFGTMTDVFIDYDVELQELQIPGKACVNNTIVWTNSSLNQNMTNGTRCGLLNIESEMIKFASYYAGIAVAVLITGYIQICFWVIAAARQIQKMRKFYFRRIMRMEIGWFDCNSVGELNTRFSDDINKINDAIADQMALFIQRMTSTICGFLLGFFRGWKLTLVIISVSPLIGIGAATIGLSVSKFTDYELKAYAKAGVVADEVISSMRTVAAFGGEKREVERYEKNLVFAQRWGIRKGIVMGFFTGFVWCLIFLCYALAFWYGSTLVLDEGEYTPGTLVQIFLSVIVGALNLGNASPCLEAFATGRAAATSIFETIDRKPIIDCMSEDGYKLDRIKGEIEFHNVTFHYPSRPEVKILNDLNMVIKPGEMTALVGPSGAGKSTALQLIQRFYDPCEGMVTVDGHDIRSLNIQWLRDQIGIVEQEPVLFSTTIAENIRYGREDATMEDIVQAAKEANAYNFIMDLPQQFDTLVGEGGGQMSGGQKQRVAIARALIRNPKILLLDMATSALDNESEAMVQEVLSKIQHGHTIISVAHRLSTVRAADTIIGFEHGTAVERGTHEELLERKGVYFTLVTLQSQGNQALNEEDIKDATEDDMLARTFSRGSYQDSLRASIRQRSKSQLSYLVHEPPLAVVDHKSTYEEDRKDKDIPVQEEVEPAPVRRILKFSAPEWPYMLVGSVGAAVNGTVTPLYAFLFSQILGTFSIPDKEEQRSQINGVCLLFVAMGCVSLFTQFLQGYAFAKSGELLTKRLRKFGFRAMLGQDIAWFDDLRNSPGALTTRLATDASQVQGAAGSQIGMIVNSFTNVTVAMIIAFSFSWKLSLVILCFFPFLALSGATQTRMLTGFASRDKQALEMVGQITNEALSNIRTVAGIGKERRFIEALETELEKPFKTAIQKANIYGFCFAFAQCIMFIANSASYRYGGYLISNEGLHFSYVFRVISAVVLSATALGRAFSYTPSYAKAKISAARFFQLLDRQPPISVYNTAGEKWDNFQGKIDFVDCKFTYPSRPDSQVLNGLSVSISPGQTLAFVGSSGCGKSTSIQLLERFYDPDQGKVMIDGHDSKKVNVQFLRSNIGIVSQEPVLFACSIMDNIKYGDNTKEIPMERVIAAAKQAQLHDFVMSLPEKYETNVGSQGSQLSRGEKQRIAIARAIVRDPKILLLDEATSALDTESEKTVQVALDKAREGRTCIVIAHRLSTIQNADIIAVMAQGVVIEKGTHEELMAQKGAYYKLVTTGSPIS
# [13] = biological target: ATP-binding cassette sub-family C member 2 (Homo sapiens, UniProt Q92887); assay: Inhibition of MRP2 (unknown origin)
# ATP-binding cassette sub-family C member 2, sequence (Q92887 whole entry): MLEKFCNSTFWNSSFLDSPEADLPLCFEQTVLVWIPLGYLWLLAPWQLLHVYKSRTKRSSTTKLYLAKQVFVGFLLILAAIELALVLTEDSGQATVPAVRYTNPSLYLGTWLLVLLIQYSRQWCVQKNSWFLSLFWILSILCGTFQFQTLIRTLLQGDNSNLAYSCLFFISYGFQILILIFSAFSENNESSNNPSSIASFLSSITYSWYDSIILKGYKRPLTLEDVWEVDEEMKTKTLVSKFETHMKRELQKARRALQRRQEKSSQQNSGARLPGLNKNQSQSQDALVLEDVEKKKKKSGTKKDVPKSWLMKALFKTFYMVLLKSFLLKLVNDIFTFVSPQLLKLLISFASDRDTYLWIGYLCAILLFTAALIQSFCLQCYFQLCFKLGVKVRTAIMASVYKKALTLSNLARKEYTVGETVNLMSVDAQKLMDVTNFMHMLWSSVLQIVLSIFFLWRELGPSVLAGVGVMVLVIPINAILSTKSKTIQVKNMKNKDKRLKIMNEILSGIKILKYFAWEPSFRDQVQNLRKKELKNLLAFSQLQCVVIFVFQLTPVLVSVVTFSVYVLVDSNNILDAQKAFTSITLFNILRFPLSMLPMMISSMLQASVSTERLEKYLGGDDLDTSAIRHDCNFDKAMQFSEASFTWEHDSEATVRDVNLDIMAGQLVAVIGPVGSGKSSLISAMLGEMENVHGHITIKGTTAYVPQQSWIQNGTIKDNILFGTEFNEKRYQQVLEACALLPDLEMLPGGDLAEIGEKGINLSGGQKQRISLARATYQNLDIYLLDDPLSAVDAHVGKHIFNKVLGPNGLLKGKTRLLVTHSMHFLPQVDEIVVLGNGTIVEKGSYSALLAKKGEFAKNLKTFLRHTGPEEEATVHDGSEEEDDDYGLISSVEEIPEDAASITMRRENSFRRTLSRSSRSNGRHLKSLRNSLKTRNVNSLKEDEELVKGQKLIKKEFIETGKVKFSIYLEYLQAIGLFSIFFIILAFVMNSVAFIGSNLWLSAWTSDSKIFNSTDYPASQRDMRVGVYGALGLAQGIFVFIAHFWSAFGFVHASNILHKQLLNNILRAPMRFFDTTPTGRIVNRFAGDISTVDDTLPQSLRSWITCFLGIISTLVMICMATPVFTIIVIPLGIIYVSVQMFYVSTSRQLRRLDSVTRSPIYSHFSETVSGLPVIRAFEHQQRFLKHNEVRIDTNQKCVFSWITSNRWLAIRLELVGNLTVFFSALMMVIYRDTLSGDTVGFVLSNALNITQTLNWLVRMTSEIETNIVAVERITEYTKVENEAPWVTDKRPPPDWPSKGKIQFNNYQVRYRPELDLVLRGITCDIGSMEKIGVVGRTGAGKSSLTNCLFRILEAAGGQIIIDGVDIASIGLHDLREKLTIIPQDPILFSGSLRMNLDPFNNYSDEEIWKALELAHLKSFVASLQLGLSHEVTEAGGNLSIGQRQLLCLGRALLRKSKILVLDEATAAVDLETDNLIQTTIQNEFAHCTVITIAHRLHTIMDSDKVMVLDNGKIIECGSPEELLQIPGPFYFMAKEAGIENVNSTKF
# [14] = biological target: Broad substrate specificity ATP-binding cassette transporter ABCG2 (Homo sapiens, UniProt Q9UNQ0); assay: Inhibition of BCRP (unknown origin)
# Rattus norvegicus [15] = assay: Analgesic activity in CCI induced thermal hyperalgesia in Sprague-Dawley rat assessed as reversal of thermal hyperalgesia by measuring reduction in paw withdrawal latency at 0.3 mg/kg, po measured after 5.5 hrs by Hargreaves test relative to control; assay type: functional; design: scale not given: the % may be the effect or the level left
# Rattus norvegicus [16] = assay: Analgesic activity in streptozotocin induced diabetic peripheral neuropathic mechanical allodynia in overnight fasted Sprague-Dawley rat model assessed as reduction in pain response at 0.3 mg/kg, po measured after 5.5 hrs post treatment; assay type: functional; design: scale not given: the % may be the effect or the level left
# [17] = Cmax in Sprague-Dawley rat plasma with CCI induced thermal hyperalgesia at 0.1 mg/kg, po measured at 5.75 hrs post dose; assay type: ADME, organism-based; design: route oral, dose 0.1 mg/kg, time 5.75 hrs
# [18] = Drug concentration in Sprague-Dawley rat spinal cord with CCI induced thermal hyperalgesia at 1 mg/kg, po measured at 5.75 hrs post dose; assay type: ADME, organism-based; conditions: read-out: Ct
# Rattus norvegicus [19] = assay: Analgesic activity in CCI induced thermal hyperalgesia Sprague-Dawley rat model assessed as efficacy at 1 mg/kg, po measured at 5.75 hrs post dose; assay type: functional
# [20] = Cmax in overnight fasted Sprague-Dawley rat plasma with streptozotocin induced diabetic peripheral neuropathic mechanical allodynia at 1 mg/kg, po measured at 5.5 hrs post dose; assay type: ADME, organism-based; design: route oral, time 5.5 hrs, dose 1 mg/kg
# [21] = Ratio of drug concentration in spinal cord to plasma of overnight fasted Sprague-Dawley rat model with streptozotocin induced diabetic peripheral neuropathic mechanical allodynia at 0.1 mg/kg, po measured at 5.5 hrs post dose; assay type: ADME, organism-based
# [22] = Cmax in naive Sprague-Dawley rat plasma at 3 mg/kg, po measured at 5.25 hrs post dose; assay type: ADME, organism-based; design: route oral, time 5.25 hrs, dose 3 mg/kg
# [23] = Cmax in naive Sprague-Dawley rat plasma at 30 mg/kg, po measured at 5.25 hrs post dose; assay type: ADME, organism-based; design: route oral, time 5.25 hrs, dose 30 mg/kg
# [24] = Drug concentration in naive Sprague-Dawley rat spinal cord at 3 mg/kg, po measured at 5.25 hrs post dose; assay type: ADME, organism-based; conditions: read-out: Ct
# [25] = Drug concentration in naive Sprague-Dawley rat spinal cord at 10 mg/kg, po measured at 5.25 hrs post dose; assay type: ADME, organism-based; conditions: read-out: Ct
# [26] = Drug concentration in naive Sprague-Dawley rat spinal cord at 30 mg/kg, po measured at 5.25 hrs post dose; assay type: ADME, organism-based; conditions: read-out: Ct
# [27] = Ratio of drug concentration in spinal cord to plasma in Sprague-Dawley rat at 3 mg/kg, po measured at 5.25 hrs post dose; assay type: ADME, organism-based
# [28] = Cmax in mouse at 3 mg/kg, po; assay type: ADME, organism-based; design: route oral, dose 3 mg/kg; conditions: in vivo
# [29] = Cmax in dog at 3 mg/kg, po; assay type: ADME, organism-based, Canis lupus familiaris; design: route oral, dose 3 mg/kg; conditions: in vivo
# [30] = AUC (infinity) in mouse at 3 mg/kg, po; assay type: ADME, organism-based; design: time infinity, route oral, dose 3 mg/kg; conditions: in vivo
# [31] = Apparent elimination half life in mouse at 2 mg/kg, iv; assay type: ADME, organism-based; conditions: in vivo, read-out: betat1/2(app) (converted)
# [32] = MRT in rat at 2 mg/kg, iv; assay type: ADME, organism-based; conditions: in vivo
# [33] = MRT in dog at 2 mg/kg, iv; assay type: ADME, organism-based, Canis lupus familiaris; conditions: in vivo
# [34] = Clearance in mouse at 2 mg/kg, iv; assay type: ADME, organism-based; conditions: in vivo
# [35] = Clearance in monkey at 2 mg/kg, iv; assay type: ADME, organism-based, Macaca mulatta; conditions: rhesus monkey, in vivo
# [36] = Volume of distribution at steady state in rat at 2 mg/kg, iv; assay type: ADME, organism-based; conditions: in vivo, read-out: Vdss
# [37] = Volume of distribution at steady state in dog at 2 mg/kg, iv; assay type: ADME, organism-based, Canis lupus familiaris; conditions: in vivo, read-out: Vdss
# [38] = Volume of distribution at steady state in monkey at 2 mg/kg, iv; assay type: ADME, organism-based, Macaca mulatta; conditions: rhesus monkey, in vivo, read-out: Vdss
# [39] = Oral bioavailability in mouse at 3 mg/kg; assay type: ADME, organism-based; conditions: in vivo
# [40] = Oral bioavailability in rat at 3 mg/kg; assay type: ADME, organism-based; conditions: in vivo
# [41] = biological target: MAP kinase-interacting serine/threonine-protein kinase 1 (Homo sapiens, UniProt Q9BUB5); assay: Inhibition of MNK1 (unknown origin)
# MAP kinase-interacting serine/threonine-protein kinase 1, sequence (Q9BUB5 whole entry): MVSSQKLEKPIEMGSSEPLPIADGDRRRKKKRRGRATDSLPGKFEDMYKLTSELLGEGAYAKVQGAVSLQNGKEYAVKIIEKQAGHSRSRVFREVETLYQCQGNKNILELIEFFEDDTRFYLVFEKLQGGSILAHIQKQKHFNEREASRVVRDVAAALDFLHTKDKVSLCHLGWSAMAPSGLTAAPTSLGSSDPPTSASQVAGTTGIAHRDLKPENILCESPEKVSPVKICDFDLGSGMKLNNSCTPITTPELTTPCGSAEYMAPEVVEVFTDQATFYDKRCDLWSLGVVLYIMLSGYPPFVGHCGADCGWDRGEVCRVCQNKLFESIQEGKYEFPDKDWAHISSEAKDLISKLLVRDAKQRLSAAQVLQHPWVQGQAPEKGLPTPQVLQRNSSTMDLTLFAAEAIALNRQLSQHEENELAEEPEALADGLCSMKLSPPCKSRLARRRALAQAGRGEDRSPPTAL
# [42] = biological target: MAP kinase-interacting serine/threonine-protein kinase 2 (Homo sapiens, UniProt Q9HBH9); assay: Inhibition of MNK2 (unknown origin)
# [43] = Solubility of the compound in acetate at pH 4.6 using crystalline form of sample; assay type: physicochemical
# [44] = Solubility of the compound in FeSSIF; assay type: physicochemical
# [45] = Solubility of the compound in propylene glycol; assay type: physicochemical
# Cytochrome P450 3A4 [46] = biological target: T1, Cytochrome P450 3A4; assay: Time dependent inhibition of CYP3A4 (unknown origin) using MDZ as substrate measured at 30 mins; assay type: ADME
compound,measurement,setting,value
CC(C)C[C@](C)(N)COc1ccc(-c2ccnc(C(F)F)c2)nc1C(F)F [PILAVAPADIN],Kp at 5.75 h,[1],23
same,Kp at 5.75 h,[2],43
same,AUC(0-inf),[3],6710 ng·h/mL
same,Tmax,[4],5 h
same,Papp at 4 h,[5],60 ×10⁻⁶ cm/s
same,"Papp B→A at 2 h, 3 µM",[6],13.8 ×10⁻⁶ cm/s
same,Activity,Aorta,42%
same,"fraction unbound at 5 h, 10 µM",[7],0.04
same,"fraction unbound at 4 h, 1 µM",[8],0.007
same,half-life,[9],0.212 h
same,IC50,Cytochrome P450 1A2,> 20 µM
same,IC50,Cytochrome P450 2C19,> 20 µM
same,IC50,Cytochrome P450 2C9,> 20 µM
same,IC50,Cytochrome P450 2D6,> 20 µM
same,IC50,Cytochrome P450 3A4 [10],> 20 µM
same,IC50,Cytochrome P450 3A4 [11],> 20 µM
same,IC50,[12],> 30 µM
same,IC50,Bile salt export pump,> 30 µM
same,IC50,[13],> 30 µM
same,IC50,[14],5.4 µM
same,Activity,Rattus norvegicus [15],25%
same,Activity,Rattus norvegicus [16],20%
same,Cmax,[17],5 nM
same,concentration at 5.75 h,[18],1220 nM
same,Efficacy,Rattus norvegicus [19],97%
same,Cmax,[20],92 nM
same,Kp at 5.5 h,[21],13
same,Cmax,[22],200 nM
same,Cmax,[23],1650 nM
same,concentration at 5.25 h,[24],3860 nM
same,concentration at 5.25 h,[25],16100 nM
same,concentration at 5.25 h,[26],32600 nM
same,Kp at 5.25 h,[27],19
same,Cmax,[28],260 ng/mL
same,Cmax,[29],200 ng/mL
same,AUC(0-inf),[30],5780 ng·h/mL
same,half-life,[31],44.2 h
same,MRT,[32],11.6 h
same,MRT,[33],6.9 h
same,clearance,[34],5 mL/min/kg
same,clearance,[35],41.2 mL/min/kg
same,Vd,[36],19.6 L/kg
same,Vd,[37],11.8 L/kg
same,Vd,[38],20.6 L/kg
same,bioavailability,[39],100%
same,bioavailability,[40],50%
same,IC50,[41],0.16 µM
same,inhibition,[42],Active
same,solubility thermodynamic,[43],> 10000 µg/mL
same,solubility,[44],840 µg/mL
same,solubility,[45],> 50000 µg/mL
same,IC50,Cytochrome P450 3A4 [46],> 40 µM
